# Experimental data from the supplement of paper PMC10307832.
# What was measured:
# Experiment in all cases: relative viability (nuclei count vs DMSO), 5 days (fraction); higher = more cells survive
# [1] = compound: C1CSC2=C(C(=O)N1)SC3=C2C=C(C=C3)O [kb NB 142-70] + CC(=O)c1c(C)c2cnc(Nc3ccc(N4CCNCC4)cn3)nc2n(C2CCCC2)c1=O [Palbociclib] (partner 0.5 µM)
# How it was run: (§1)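 For relative viability, nuclei counts in treated wells were divided by those in vehicle wells. Lung cancer cell lines had been pin-tool dosed in 1536-well plates the day after seeding and cultured for 5 days, then fixed and stained in one step (final 0.05% Triton X-100, 1% formaldehyde, 1 ug/ml Hoechst) and imaged at 4×. Doses were one drug alone or a fixed anchor-drug dose plus five library-drug doses (not always all listed) in √10 steps, and values are duplicate-plate medians.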
# [2] = compound: NCC(=O)Nc1ccc(-n2nc(C(F)(F)F)cc2-c2ccc3c(ccc4ccccc43)c2)cc1 + NC(=O)Nc1cc(-c2cccc(F)c2)sc1C(=O)N[C@H]1CCCNC1 [AZD7762] (partner 0.2 µM)
# How it was run: as §1
# [3] = compound: C1CSC2=C(C(=O)N1)SC3=C2C=C(C=C3)O [kb NB 142-70] + C[C@@H](Oc1cc(-c2cnn(C3CCNCC3)c2)cnc1N)c1c(Cl)ccc(F)c1Cl [Crizotinib] (partner 1 µM)
# How it was run: as §1
# [4] = compound: C1CSC2=C(C(=O)N1)SC3=C2C=C(C=C3)O [kb NB 142-70] + CC(C)C[C@H](NC(=O)[C@H](Cc1ccccc1)NC(=O)c1cnccn1)B(O)O [Bortezomib] (partner 0.002 µM)
# How it was run: as §1
# [5] = compound: NCC(=O)Nc1ccc(-n2nc(C(F)(F)F)cc2-c2ccc3c(ccc4ccccc43)c2)cc1 + CC(C)C[C@H](NC(=O)[C@H](Cc1ccccc1)NC(=O)c1cnccn1)B(O)O [Bortezomib] (partner 0.002 µM)
# How it was run: as §1
Cell Line,relative viability ([1]; first compound 0.1 µM),relative viability ([1]; first compound 1 µM),relative viability ([1]; first compound 3.162 µM),relative viability ([2]; first compound 0.02 µM),relative viability ([2]; first compound 0.06325 µM),relative viability ([2]; first compound 0.2 µM),relative viability ([2]; first compound 0.6325 µM),relative viability ([2]; first compound 2 µM),relative viability ([3]; first compound 0.1 µM),relative viability ([3]; first compound 1 µM),relative viability ([3]; first compound 3.162 µM),relative viability ([4]; first compound 0.1 µM),relative viability ([4]; first compound 1 µM),relative viability ([4]; first compound 3.162 µM),relative viability ([5]; first compound 0.02 µM),relative viability ([5]; first compound 0.06325 µM),relative viability ([5]; first compound 0.2 µM),relative viability ([5]; first compound 0.6325 µM),relative viability ([5]; first compound 2 µM)
NCI-H1648,0.276,0.275,0.206,0.893,0.598,0.74,0.663,0.588,,,,,,,,,,,
SK-MES-1,0.343,0.424,0.402,,,,,,1.01,1.02,0.72,,,,,,,,
HCC-366,0.404,0.477,0.356,0.236,0.205,0.31,0.276,0.333,0.533,0.633,0.463,1.07,0.926,1.12,1.17,1.03,1.04,1.02,1.01
201T,0.35,0.361,0.394,0.599,0.657,0.625,0.656,0.601,0.989,1.07,1.03,1.09,1.17,1.11,1.04,1.18,1.03,1.17,1.09
HCC-827,0.525,0.459,0.396,0.213,0.189,0.245,0.316,0.235,0.918,0.947,0.921,1.09,1.02,0.978,1.02,1.12,1.04,1,1.15
NCI-H647,0.289,0.372,0.414,0.384,0.39,0.524,0.431,0.527,1.08,1.27,1.12,0.987,0.773,1.06,1.14,1.18,1.09,1.04,0.99
NCI-H2023,0.389,0.379,0.257,,,,,,0.699,0.761,0.551,1.09,1.02,0.668,0.993,1.13,0.724,0.932,0.904
NCI-H520,0.234,0.21,0.164,,,,,,0.869,0.825,0.507,0.52,0.541,0.277,0.646,0.568,1.05,0.671,0.789
RERF-LC-KJ,1.1,1.18,0.983,0.959,0.863,0.996,1.12,1.03,0.819,0.93,0.924,1.18,1.29,0.946,1.11,1.19,1.15,1.26,1.14
A-427,0.505,0.555,0.507,0.757,0.719,0.854,0.693,0.786,0.937,1.01,0.908,1.01,1.05,1.01,0.949,0.919,0.948,0.972,0.984
NCI-H441,0.237,0.209,0.169,1.12,1.1,1.32,1.06,1.12,0.958,0.64,0.433,0.323,0.793,0.307,0.931,0.481,0.308,0.409,0.361
NCI-H1703,,,,0.127,,0.122,0.124,0.142,0.681,0.866,0.489,0.255,0.361,0.209,0.278,0.237,0.307,0.215,0.344
NCI-H1792,0.586,0.722,0.836,0.725,0.772,0.759,0.822,0.682,0.995,1.01,0.914,0.992,0.988,1.01,1.02,0.974,0.932,0.946,0.966
Calu-6,,,,,,,,,0.748,0.839,0.384,1.01,0.946,0.62,0.998,1.2,1.06,0.972,1.04
SK-LU-1,0.404,0.412,0.359,,,,,,0.861,0.691,0.45,1.19,1.05,0.839,1.07,1.22,1.23,1.07,1.31
PC-3 [JPC-3],0.516,0.54,0.534,0.792,0.873,0.85,0.88,0.832,0.985,1.05,0.916,0.8,0.83,0.898,0.763,0.853,0.8,0.816,0.929
EMC-BAC-2,0.524,0.553,0.516,1.09,1.1,1.1,1.13,1.16,0.782,0.893,0.625,1.08,1.07,0.812,1.02,1.19,1.1,1.07,1.1
LK-2,0.661,0.476,0.352,0.459,0.47,0.402,0.493,0.381,0.225,0.226,0.204,,,,,,,,
NCI-H2126,0.364,0.373,0.345,0.969,1.12,1.02,1.01,1.01,1.04,1.06,0.983,1.11,1.14,1.12,1.12,1.15,1.15,1.13,1.14
NCI-H3122,0.181,0.199,0.187,0.897,0.983,1,1.01,0.969,0.268,0.242,0.192,1.09,1.06,1.03,1.02,1.02,0.984,1,1.05
NCI-H1975,0.599,0.662,0.435,0.732,0.699,0.777,0.691,0.708,0.899,0.959,0.842,0.33,0.283,0.153,0.37,0.414,0.44,0.345,0.426
NCI-H1944,0.334,0.358,0.376,0.476,0.484,0.551,0.47,0.559,1.02,1.31,1.23,,,,,,,,

Cell Line,relative viability ([1]; first compound 0.1 µM),relative viability ([1]; first compound 1 µM),relative viability ([1]; first compound 3.162 µM),relative viability ([2]; first compound 0.02 µM),relative viability ([2]; first compound 0.06325 µM),relative viability ([2]; first compound 0.2 µM),relative viability ([2]; first compound 0.6325 µM),relative viability ([2]; first compound 2 µM),relative viability ([3]; first compound 0.1 µM),relative viability ([3]; first compound 1 µM),relative viability ([3]; first compound 3.162 µM),relative viability ([4]; first compound 0.1 µM),relative viability ([4]; first compound 1 µM),relative viability ([4]; first compound 3.162 µM),relative viability ([5]; first compound 0.02 µM),relative viability ([5]; first compound 0.06325 µM),relative viability ([5]; first compound 0.2 µM),relative viability ([5]; first compound 0.6325 µM),relative viability ([5]; first compound 2 µM)
LU99A,0.379,0.447,0.413,0.333,0.387,0.389,0.341,0.355,0.577,0.506,0.397,1.29,0.995,0.732,1.14,1.27,1.06,1.07,1.1
SW 1573,0.418,0.376,0.208,,,,,,0.832,0.815,0.526,1.18,0.967,0.322,1.16,1.28,1.05,0.894,1.02
NCI-H2347,0.438,0.439,0.488,0.719,0.696,0.756,0.817,0.75,0.685,0.707,0.594,1.03,0.808,1.07,0.956,1.18,1.02,1.12,0.945
NCI-H2009,0.286,0.304,0.285,,,,,,1,1.12,0.652,1.09,1.05,0.638,0.911,1.05,0.825,0.963,1.08
COR-L23,0.324,0.317,0.186,,,,,,0.679,0.818,0.278,0.872,0.913,0.51,1.05,0.944,0.962,0.978,0.737
NCI-H1299,,,,,,,,,0.928,0.969,0.893,1.01,1.07,1.05,0.992,1.03,1.1,0.972,1.04
NCI-H1650,0.362,0.39,0.321,,,,,,0.833,1.01,1.08,0.179,0.206,0.203,0.235,0.215,0.188,0.191,0.195
NCI-H1793,0.301,0.329,0.357,0.434,0.568,0.573,0.447,0.742,,,,,,,,,,,
COR-L 105,0.432,0.369,0.433,,,,,,0.564,0.816,0.925,0.871,0.828,0.903,0.73,0.917,0.744,0.703,1.03
NCI-H2228,0.819,0.719,0.446,,,,,,0.519,0.561,0.27,1.08,0.689,0.303,0.749,0.935,1.01,1.38,0.914
SW 900,0.553,0.463,0.458,0.635,0.558,0.701,0.659,0.655,,,,,,,,,,,
NCI-H661,0.379,0.363,0.342,,,,,,1.05,0.969,1.22,0.808,0.805,0.802,0.785,0.853,0.737,0.784,0.762
NCI-H596,,,,1.14,1.03,0.984,1.28,1.08,1.03,1.03,0.933,1,1.07,0.954,1.27,1.1,0.883,1.96,1.05
NCI-H1563,,,,,,,,,0.864,0.853,0.839,0.921,0.84,0.956,0.77,0.962,0.69,0.925,0.928
A549,,,,,,,,,0.762,0.861,0.213,,,,,,,,
NCI-H2342,0.547,0.497,0.589,0.666,0.633,0.502,0.449,0.558,,,,,,,,,,,
NCI-H2170,0.413,0.44,0.392,0.87,0.907,0.94,0.911,0.86,1.21,1.22,1.04,,,,,,,,
NCI-H522,0.988,0.789,0.77,0.609,1.09,0.815,0.888,0.828,,,,,,,,,,,
NCI-H1395,0.582,0.685,0.631,0.373,0.421,0.37,0.407,0.38,,,,,,,,,,,
IA-LM,,,,,,,,,0.856,1.25,0.894,0.765,1.06,0.647,0.775,0.721,0.802,0.814,0.813
NCI-H358,0.127,0.136,0.0896,0.535,0.593,0.607,0.609,0.526,0.481,0.493,0.136,,,,,,,,
EBC-1,,,,,,,,,0.196,0.209,0.155,0.592,0.546,0.358,0.533,0.556,0.738,0.52,0.589
